According to patent US8076338B2, “Kinase modulators and methods of use” (Exelixis, Inc., priority 2004, dated 2011):
Where two headings read alike, the source gives them in different places.

Tests used:
AktK = AktK (Homo sapiens, UniProt P31749); experiment: Luciferase-coupled chemiluminescence kinase assay (ATP consumption); assay type: biochemical; details: read-out: AKT-1 IC50
Outline: (§1)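 Enzyme at 2.5-5 nM was preincubated 30 min at room temperature with compound in Tris pH 7.5, MgCl2, TX-100, DTT, then reacted with ATP for 3 h at ambient temperature. Remaining ATP was quantified by luciferase-luciferin chemiluminescence, with consumption kept at 25-60%; […].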

p70S6K = p70S6K (Homo sapiens, UniProt P23443); experiment: as above; assay type: biochemical
Chain of p70S6K (P23443 whole entry): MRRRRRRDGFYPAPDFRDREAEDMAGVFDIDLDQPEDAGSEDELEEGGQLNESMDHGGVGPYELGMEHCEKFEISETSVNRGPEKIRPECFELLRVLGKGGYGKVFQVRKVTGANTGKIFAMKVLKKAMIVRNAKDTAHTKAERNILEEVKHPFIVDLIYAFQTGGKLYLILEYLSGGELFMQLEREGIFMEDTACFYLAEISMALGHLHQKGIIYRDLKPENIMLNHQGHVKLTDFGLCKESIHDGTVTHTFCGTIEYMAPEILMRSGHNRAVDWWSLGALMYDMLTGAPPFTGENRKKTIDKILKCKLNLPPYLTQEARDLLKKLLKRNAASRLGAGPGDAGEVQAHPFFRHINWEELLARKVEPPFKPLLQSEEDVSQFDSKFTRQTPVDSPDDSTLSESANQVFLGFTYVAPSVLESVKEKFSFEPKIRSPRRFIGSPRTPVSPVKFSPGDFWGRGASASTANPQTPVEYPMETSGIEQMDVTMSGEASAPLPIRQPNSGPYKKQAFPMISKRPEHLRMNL
Outline: as §1

Chain of AktK (P31749 whole entry): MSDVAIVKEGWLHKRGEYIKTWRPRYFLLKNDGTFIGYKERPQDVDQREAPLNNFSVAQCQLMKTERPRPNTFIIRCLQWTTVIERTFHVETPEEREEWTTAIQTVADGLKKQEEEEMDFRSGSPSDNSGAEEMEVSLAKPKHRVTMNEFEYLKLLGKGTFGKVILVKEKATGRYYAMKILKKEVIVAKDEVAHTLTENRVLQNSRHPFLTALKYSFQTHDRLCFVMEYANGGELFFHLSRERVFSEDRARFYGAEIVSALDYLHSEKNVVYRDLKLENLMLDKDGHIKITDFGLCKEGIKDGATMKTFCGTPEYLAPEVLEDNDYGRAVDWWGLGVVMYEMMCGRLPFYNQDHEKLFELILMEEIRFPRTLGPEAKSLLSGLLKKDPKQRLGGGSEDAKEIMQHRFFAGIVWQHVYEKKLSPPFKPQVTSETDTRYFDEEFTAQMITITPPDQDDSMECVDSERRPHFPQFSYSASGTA

Compound	IC50 (AktK) [nM]	IC50 (p70S6K) [nM]	IC50 (AktK; Table 1, class symbols per key) [nM]	IC50 (p70S6K; Table 1, class symbols per key) [nM]
Cc1ccc(Cl)cc1N1CCN(c2ncnc3[nH]nc(-c4cccc(O)c4)c23)CC1 [Entry 335, 3-{4-[4-(5-chloro-2-methylphenyl)piperazin-1-yl]-1H-pyrazolo[3,4-d]pyrimidin-3-yl}phenol]	1000 to 10000	100 to 1000	–	–
Cc1ccc(Cl)cc1N1CCN(c2ncnc3[nH]nc(C#CCO)c23)CC1 [Entry 393, 3-{4-[4-(5-chloro-2-methylphenyl)piperazin-1-yl]-1H-pyrazolo[3,4-d]pyrimidin-3-yl}prop-2-yn-1-ol]	100 to 1000	< 100	–	–
COc1ccc(N2CCN(c3ncnc4[nH]nc(Br)c34)CC2)c(OC)c1 [Entry 106, 4-{4-[2,4-bis(methyloxy)phenyl]piperazin-1-yl}-3-bromo-1H-pyrazolo[3,4-d]pyrimidine]	–	–	≥ 10000	100 to 1000
COc1cccc(-c2n[nH]c3ncnc(N4CCN(c5cc(Cl)ccc5C)CC4)c23)c1 [Entry 365, 4-[4-(5-chloro-2-methylphenyl)piperazin-1-yl]-3-[3-(methyloxy)phenyl]-1H-pyrazolo[3,4-d]pyrimidine]	1000 to 10000	1000 to 10000	–	–
CCc1n[nH]c2ncnc(N3CCN(c4cccc(Cl)c4)C(C(=O)NC)C3)c12 (stereo not shown) [Entry 353, 1-(3-chlorophenyl)-4-(3-ethyl-1H-pyrazolo[3,4-d]pyrimidin-4-yl)-N-methylpiperazine-2-carboxamide]	1000 to 10000	100 to 1000	–	–
4-[4-(5-chloro-2-methylphenyl)piperazin-1-yl]-3-(2-methylpropyl)-1H-pyrazolo[3,4-d]pyrimidine [Entry 355]	1000 to 10000	< 100	–	–
CCc1n[nH]c2ncnc(N3CCN(c4cc(Cl)cc(C(=O)N5CCN(C)CC5)c4OC)CC3)c12 [Entry 375, 4-(4-{5-chloro-2-(methyloxy)-3-[(4-methylpipera-zin-1-yl)carbonyl]phenyl}piperazin-1-yl)-3-ethyl-1H-pyrazolo[3,4-d]pyrimidine]	≥ 10000	100 to 1000	–	–
COC(=O)c1cc(Br)c(C)c(N2CCN(c3ncnc4[nH]nc(Br)c34)CC2)c1 [Entry 186, methyl 3-bromo-5-[4-(3-bromo-1H-pyrazolo[3,4-d]pyrimidin-4-yl)piperazin-1-yl]-4-methylbenzoate]	–	–	100 to 1000	< 100
CCN(CC)CCCOc1nc(Cl)c(C)c(N2CCN(c3ncnc4[nH]nc(Br)c34)CC2)n1 [Entry 173, 3-({4-[4-(3-bromo-1H-pyrazolo[3,4-d]pyrimidin-4-yl)piperazin-1-yl]-6-chloro-5-methylpyrimidin-2-yl}oxy)-N,N-diethylpropan-1-amine]	–	–	1000 to 10000	100 to 1000
FC(F)(F)c1cccc(N2CCN(c3ncnc4[nH]ccc34)CC2)c1 [Entry 305, 4-{4-[3-(trifluoromethyl)phenyl]piperazin-1-yl}-7H-pyrrolo[2,3-d]pyrimidine]	≥ 10000	100 to 1000	–	–
CCc1n[nH]c2ncnc(N3CCN(c4cc(Cl)cc(CO)c4OC)CC3)c12 [Entry 367, [5-chloro-3-[4-(3-ethyl-1H-pyrazolo[3,4-d]pyrimidin-4-yl)piperazin-1-yl]-2-(methyloxy)phenyl]methanol]	1000 to 10000	< 100	–	–
CCC(=O)c1cc(NCCN2CCCC2)c(C)c(N2CCN(c3ncnc4[nH]nc(Br)c34)CC2)c1 [Entry 243, 1-{3-[4-(3-bromo-1H-pyrazolo[3,4-d]pyrimidin-4-yl)piperazin-1-yl]-4-methyl-5-[(2-pyrrolidin-1-ylethyl)amino]phenyl}propan-1-one]	–	–	< 100	< 100
COC(=O)c1ccc(C)c(N2CCN(c3ncnc4[nH]nc(Br)c34)CC2)c1 [Entry 179, methyl 3-[4-(3-bromo-1H-pyrazolo[3,4-d]py-rimidin-4-yl)piperazin-1-yl]-4-methylbenzoate]	–	–	< 100	< 100
Cc1c(NCCN(C)C)cc(C(=O)NC(C)C)cc1N1CCN(c2ncnc3[nH]nc(Br)c23)CC1 [Entry 227, 3-[4-(3-bromo-1H-pyrazolo[3,4-d]pyrimidin-4-yl)piperazin-1-yl]-5-{[2-(dimethylamino)eth-yl]amino}-4-methyl-N-(1-methylethyl)benzamide]	–	–	< 100	< 100
COc1ccc(-c2n[nH]c3ncnc(N4CCN(c5cc(Cl)ccc5C)CC4)c23)cc1 [Entry 356, 4-[4-(5-chloro-2-methylphenyl)piperazin-1-yl]-3-[4-(methyloxy)phenyl]-1H-pyrazolo[3,4-d]pyrimidine]	1000 to 10000	100 to 1000	–	–
Cc1ccccc1N1CCN(c2ncnc3[nH]ncc23)CC1 [Entry 317, 4-[4-(2-methylphenyl)piperazin-1-yl]-1H-pyrazolo[3,4-d]pyrimidine]	≥ 10000	100 to 1000	–	–

Compound	IC50 (AktK) [nM]	IC50 (p70S6K) [nM]	IC50 (AktK; Table 1, class symbols per key) [nM]	IC50 (p70S6K; Table 1, class symbols per key) [nM]
3-[4-(3-bromo-1H-pyrazolo[3,4-d]pyrimidin-4-yl)piperazin-1-yl]-5-(butyloxy)-2-methyl-N-(2-pyrrolidin-1-ylethyl)aniline [Entry 208]	–	–	< 100	< 100
Cc1c(OCCN2CCCC2)cc(Cl)cc1N1CCN(c2ncnc3[nH]nc(C4CC4)c23)CC1 [Entry 160, 4-(4-{5-chloro-2-methyl-3-[(2-pyrrolidin-1-ylethyl)oxy]phenyl}piperazin-1-yl)-3-cyclopropyl-1H-pyrazolo[3,4-d]pyrimidine]	–	–	1000 to 10000	< 100
Cc1c(NCCN2CCCC2)cc(C(=O)Nc2ccc(Cl)cc2)cc1N1CCN(c2ncnc3[nH]nc(Br)c23)CC1 [Entry 203, 3-[4-(3-bromo-1H-pyrazolo[3,4-d]pyrimidin-4-yl)piperazin-1-yl]-N-(4-chlorophenyl)-4-methyl-5-[(2-pyrrolidin-1-ylethyl)amino]benzamide]	–	–	< 100	< 100
Cc1c(NCCN2CCCC2)cc(C(=O)C2CC2)cc1N1CCN(c2ncnc3[nH]nc(Br)c23)CC1 [Entry 275, {3-[4-(3-bromo-1H-pyrazolo[3,4-d]pyrimidin-4-yl)piperazin-1-yl]-4-methyl-5-[(2-pyrrolidin-1-ylethyl)amino]phenyl}(cyclopropyl)methanone]	–	–	< 100	< 100
Cc1ccc(Cl)cc1N1CCN(c2ncnc3[nH]nc(-c4ccc(C#N)cc4)c23)CC1 [Entry 366, 4-{4-[4-(5-chloro-2-methylphenyl)piperazin-1-yl]-1H-pyrazolo[3,4-d]pyrimidin-3-yl}benzonitrile]	1000 to 10000	1000 to 10000	–	–
Cc1c(NCCN2CCCC2)cc(-c2ccccc2)cc1N1CCN(c2ncnc3[nH]nc(Br)c23)CC1 [Entry 231, 5-[4-(3-bromo-1H-pyrazolo[3,4-d]pyrimidin-4-yl)piperazin-1-yl]-4-methyl-N-(2-pyrrolidin-1-ylethyl)biphenyl-3-amine]	–	–	< 100	< 100
Cc1c(OCCN2CCN(C)CC2)cc(Cl)cc1N1CCN(c2ncnc3[nH]nc(C(F)(F)F)c23)CC1 [Entry 73, 4-[4-(5-chloro-2-methyl-3-{[2-(4-methylpiperazin-1-yl)ethyl]oxy}phenyl)piperazin-1-yl]-3-(trifluoromethyl)-1H-pyrazolo[3,4-d]pyrimidine]	–	–	100 to 1000	< 100
CCN(CC)CCCc1cc(Cl)cc(N2CCN(c3ncnc4[nH]nc(C(F)(F)F)c34)CC2)c1C [Entry 87, 3-(5-chloro-2-methyl-3-{4-[3-(trifluoromethyl)-1H-pyrazolo[3,4-d]pyrimidin-4-yl]piperazin-1-yl}phenyl)-N,N-diethylpropan-1-amine]	–	–	100 to 1000	< 100
2-[4-(3-bromo-1H-pyrazolo[3,4-d]pyrimidin-4-yl)piperazin-1-yl]-N,N-diethylpyrimidin-4-amine [Entry 140]	–	–	1000 to 10000	100 to 1000
CCc1n[nH]c2ncnc(N3CCN(c4cc(Cl)cc(OCCN(C)C)c4OC)CC3)c12 [Entry 384, 2-{[5-chloro-3-[4-(3-ethyl-1H-pyrazolo[3,4-d]pyrimidin-4-yl)piperazin-1-yl]-2-(methyloxy)phenyl]oxy}-N,N-dimethylethanamine]	1000 to 10000	< 100	–	–
CCc1n[nH]c2ncnc(N3CCCN(c4cccc(Cl)c4)CC3)c12 [Entry 343, 4-[4-(3-chlorophenyl)-1,4-diazepan-1-yl]-3-ethyl-1H-pyrazolo[3,4-d]pyrimidine]	≥ 10000	100 to 1000	–	–
Cc1c(CCCN2CCCC2)cc(Cl)cc1N1CCN(c2ncnc3[nH]nc(C#CCO)c23)CC1 [Entry 182, 3-(4-{4-[5-chloro-2-methyl-3-(3-pyrrolidin-1-ylpropyl)phenyl]piperazin-1-yl}-1H-pyrazolo[3,4-d]pyrimidin-3-yl)prop-2-yn-1-ol]	–	–	< 100	< 100
CCc1n[nH]c2ncnc(N3CCN(c4cc(Cl)c(OCCCN(C)C)cc4C)CC3)c12 [Entry 388, 3-({2-chloro-4-[4-(3-ethyl-1H-pyrazolo[3,4-d]pyrimidin-4-yl)piperazin-1-yl]-5-methylphenyl}oxy)-N,N-dimethylpropan-1-amine]	1000 to 10000	100 to 1000	–	–
Cc1c(NCCN2CCCC2)cc(OC(C)C)cc1N1CCN(c2ncnc3[nH]nc(Br)c23)CC1 [Entry 220, 3-[4-(3-bromo-1H-pyrazolo[3,4-d]pyrimidin-4-yl)piperazin-1-yl]-2-methyl-5-[(1-methylethyl)oxy]-N-(2-pyrrolidin-1-ylethyl)aniline]	–	–	< 100	< 100
Cc1ccc(C(=O)NCCN(C)C)cc1N1CCN(c2ncnc3[nH]nc(Br)c23)CC1 [Entry 213, 3-[4-(3-bromo-1H-pyrazolo[3,4-d]pyrimidin-4-yl)piperazin-1-yl]-N-[2-(dimethylamino)ethyl]-4-methylbenzamide]	–	–	1000 to 10000	< 100
CCN(CC)CCCOc1cc(Cl)cc(N2CCN(c3ncnc4[nH]nc(Br)c34)CC2)c1C [Entry 83, 3-({3-[4-(3-bromo-1H-pyrazolo[3,4-d]pyrimidin-4-yl)piperazin-1-yl]-5-chloro-2-methylphenyl}oxy)-N,N-diethylpropan-1-amine]	–	–	< 100	< 100
